In the NIST ThermoML archive (doi:10.1021/je025579q):

Experiments:
[1] = 298.15 K; 101.33 kPa; Liquid
[2] = xn = mol fraction of the nth substance listed; details: 298.15 K, 101.3 kPa, Liquid; for speed of sound: Sing-around technique in a fixed-path interferometer

COC(C)(C)C [2-methoxy-2-methylpropane]
[1]
Details	mass density [kg/m3]	speed of sound [m/s]
–	735.35	1036.1

CCCCCCCCCC [decane]
[1]
Details	mass density [kg/m3]	speed of sound [m/s]
–	726.09	1234.7

CCCCO [butan-1-ol] + CCCCCCCCCC
[2], x1 = 1
Details	mass density [kg/m3]	speed of sound [m/s]
–	805.67	1239.8

CCCCCCCCCC [decane] + CCCCO
[2]
Details	mass density [kg/m3]	speed of sound [m/s]
x2 = 0	726.09	1234.7
x2 = 0.04848	727.38	1230.8
x2 = 0.09526	728.99	1228.9
x2 = 0.2045	733.33	1225.6
x2 = 0.2974	737.65	1223.9
x2 = 0.3949	742.88	1222.7
x2 = 0.4455	745.96	1222.5
x2 = 0.4928	749.07	1222.4
x2 = 0.5579	753.72	1222.7
x2 = 0.5937	756.5	1222.9
x2 = 0.7031	766.17	1224.6
x2 = 0.7901	775.35	1226.7
x2 = 0.8707	785.36	1230.4
x2 = 0.948	796.76	1235.3

CCCCO [butan-1-ol]
[1]
Details	mass density [kg/m3]	speed of sound [m/s]
–	805.67	1239.8
